We go through 31 compounds from ChEMBL document CHEMBL4706512, “Design, synthesis and antitumor activity of novel thiophene-pyrimidine derivatives as EGFR inhibitors overcoming T790M and L858R/T790M mutations” (Eur J Med Chem, 2020).

Bounds are passed on as bounds.

The term IC50 denotes the concentration at which inhibition is half-maximal. Usually inhibition stands for the drop in the measured response relative to a control, in per cent.

One assay has as its system HeLa. Description: Antiproliferative activity against human HeLa cells assessed as inhibition of cell proliferation measured after 72 hrs by MTT assay. The format is functional, cell-based. In general terms: Formazan colour is commonly taken as a measure of viable cells.
The subject of another assay is MCF7. The assay can be described thus: Antiproliferative activity against human MCF7 cells assessed as inhibition of cell proliferation measured after 72 hrs by MTT assay. The format is functional, cell-based. The following applies: MCF7, 72 h.
Another assay concerns A-431. Description: Antiproliferative activity against human A-431 cells assessed as inhibition of cell proliferation measured after 72 hrs by MTT assay. In kind it is functional, cell-based. The conditions noted are these: A-431, 72 h.
For the next assay, the system named is A549. Description: Antiproliferative activity against human A549 cells assessed as inhibition of cell proliferation measured after 72 hrs by MTT assay. In kind it is functional, cell-based. The conditions noted are these: A549, 72 h.
A further assay has as its system L02. Description: Cytotoxicity against human L02 cells assessed as inhibition of cell proliferation measured after 72 hrs by MTT assay. The conditions noted are these: L02, 72 h. In kind it is cell-based.
Assay [1] can be described thus: Inhibition of EGFR T790M mutant (unknown origin) using FAM-labelled peptide as substrate incubated for 10 mins in presence of ATP measured by mobility shift assay. More on the design: species or system Homo sapiens.
In assay [2] the target is T1, Epidermal growth factor receptor (Homo sapiens, UniProt P00533). The assay can be described thus: Inhibition of wild type EGFR (unknown origin) using FAM-labelled peptide as substrate at 1 uM incubated for 10 mins in presence of ATP measured by mobility shift assay.
Assay [3] deals with NCI-H1975. Description: Antiproliferative activity against human NCI-H1975 cells harboring EGFR T790M/L858R double mutant assessed as inhibition of cell viability at 10 uM measured after 72 hrs by MTT assay. In kind it is functional.
Assay [4] deals with NCI-H1975. The assay can be described thus: Antiproliferative activity against human NCI-H1975 cells harboring EGFR T790M/L858R double mutant assessed as inhibition of cell viability measured after 72 hrs by MTT assay. The format is functional, cell-based. The conditions noted are these: NCI-H1975, 72 h.
The species named for the next assay is Homo sapiens. Description: Inhibition of EGFR T790M mutant (unknown origin) using FAM-labelled peptide as substrate at 1 uM incubated for 10 mins in presence of ATP measured by mobility shift assay.
The target of assay [5] is T1, Epidermal growth factor receptor. Description: Inhibition of wild type EGFR (unknown origin) using FAM-labelled peptide as substrate incubated for 10 mins in presence of ATP measured by mobility shift assay.
Assay [6] has as its system NCI-H1975. Description: Antiproliferative activity against human NCI-H1975 cells harboring EGFR T790M/L858R double mutant assessed as inhibition of cell viability at 1 uM measured after 72 hrs by MTT assay. The format is functional.

T1 sequence (P00533 whole entry): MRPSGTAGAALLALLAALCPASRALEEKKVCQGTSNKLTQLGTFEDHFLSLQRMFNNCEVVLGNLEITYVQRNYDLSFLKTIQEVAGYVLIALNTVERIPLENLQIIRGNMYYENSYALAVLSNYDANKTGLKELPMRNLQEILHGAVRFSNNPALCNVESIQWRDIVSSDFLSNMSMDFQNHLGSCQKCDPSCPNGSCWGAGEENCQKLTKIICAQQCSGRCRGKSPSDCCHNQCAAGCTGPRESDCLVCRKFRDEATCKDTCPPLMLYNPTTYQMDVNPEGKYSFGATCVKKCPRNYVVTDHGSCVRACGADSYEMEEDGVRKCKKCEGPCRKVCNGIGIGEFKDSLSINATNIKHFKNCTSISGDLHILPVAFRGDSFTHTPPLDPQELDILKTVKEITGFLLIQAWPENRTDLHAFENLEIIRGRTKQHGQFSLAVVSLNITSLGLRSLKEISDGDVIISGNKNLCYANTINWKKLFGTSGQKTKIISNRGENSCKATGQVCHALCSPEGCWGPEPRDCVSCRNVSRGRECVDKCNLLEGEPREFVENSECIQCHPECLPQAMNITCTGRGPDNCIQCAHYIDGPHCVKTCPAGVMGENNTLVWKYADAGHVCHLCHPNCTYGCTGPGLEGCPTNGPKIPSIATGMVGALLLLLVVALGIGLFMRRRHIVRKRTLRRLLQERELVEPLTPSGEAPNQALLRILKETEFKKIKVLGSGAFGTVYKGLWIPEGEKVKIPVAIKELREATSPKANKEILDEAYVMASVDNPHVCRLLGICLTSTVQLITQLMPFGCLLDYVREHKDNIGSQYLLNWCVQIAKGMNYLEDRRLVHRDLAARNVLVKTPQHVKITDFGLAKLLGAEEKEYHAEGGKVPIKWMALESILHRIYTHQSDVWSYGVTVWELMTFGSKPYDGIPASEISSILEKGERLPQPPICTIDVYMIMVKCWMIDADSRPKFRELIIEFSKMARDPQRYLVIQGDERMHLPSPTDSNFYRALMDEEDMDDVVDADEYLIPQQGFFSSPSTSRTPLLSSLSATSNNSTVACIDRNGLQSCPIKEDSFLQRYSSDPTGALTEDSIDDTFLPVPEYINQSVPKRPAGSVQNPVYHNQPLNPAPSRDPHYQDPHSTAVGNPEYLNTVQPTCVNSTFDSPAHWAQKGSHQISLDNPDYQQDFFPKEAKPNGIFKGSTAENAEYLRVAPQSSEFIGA

On to `C=C(C)C(=O)Nc1cccc(Oc2nc(Nc3ccn(C)n3)nc3ccsc23)c1`, for which the IC50 with HeLa, with MCF7, in the assay with A-431 and in the assay on A549 was over 50 µM throughout.

Consider `CCC/C=C/C(=O)Nc1cccc(Oc2nc(Nc3cccc(C#N)c3)nc3ccsc23)c1`, for which the IC50 in the assay with HeLa was 42.1 µM; in the assay with MCF7, 49.1 µM; in the assay with L02, over 50 µM; in the assay on A-431 it was 20.4 µM; with A549, 16.7 µM.

With `C/C=C/C(=O)Nc1cccc(Oc2nc(Nc3cccc(C#N)c3)nc3ccsc23)c1`, the IC50 in the assay with HeLa is 23.6 µM; in the assay on MCF7, 33.1 µM; in the assay with L02, 47.9 µM; with A-431, 20.1 µM; in the assay on A549 it was 11.3 µM.

For `CCC/C=C/C(=O)Nc1cccc(Oc2nc(Nc3ccn(C)n3)nc3ccsc23)c1`, the half-maximal inhibitory concentration (IC50) came out at 32.2 µM in the assay on HeLa, 39.1 µM in the assay with MCF7, 23.4 µM in the assay with A-431 and 26.3 µM in the assay with A549.

Take `C=C(F)C(=O)Nc1cccc(Oc2nc(Nc3ccn(C)n3)nc3ccsc23)c1`: the IC50 in the assay on HeLa, in the assay on MCF7, in the assay on A-431 and in the assay on A549 was over 50 µM each time.

Regarding `CCC/C=C/C(=O)Nc1cccc(Oc2nc(Nc3ccc(OC)cc3)nc3ccsc23)c1`, the half-inhibitory concentration (IC50) was 31.4 µM in the assay with HeLa; over 1 µM in assay [1]; 35 µM with MCF7; 2.14 µM with NCI-H1975 [4]; over 50 µM in the assay on L02; 4.22 µM with A-431. The results for the IC50 (in assay [5]; in the assay on A549) were over 1 µM and 5.21 µM, respectively. In addition, the figures for the inhibition (in assay [2]; in the assay filed under Homo sapiens) were 7.4% and 21.7%, respectively. For the same compound, the inhibition at 10 µM in the assay on NCI-H1975 [3] was determined as 94.3%. In addition, the inhibition at 1 µM in the assay on NCI-H1975 [6] amounted to 3.25%.

With `CC(C)/C=C/C(=O)Nc1cccc(Oc2nc(Nc3cccc(C#N)c3)nc3ccsc23)c1`, the IC50 was 36.5 µM in the assay on HeLa; over 50 µM with MCF7; over 50 µM with L02; 24.1 µM with A-431; 19 µM with A549.

Consider `C/C=C/C(=O)Nc1cccc(Oc2nc(Nc3ccn(C)n3)nc3ccsc23)c1`, for which the IC50 in the assay on HeLa was 43.5 µM; in the assay on MCF7, over 50 µM; with A-431 it was 33.3 µM; in the assay with A549, 29.5 µM.

Consider `CC/C=C/C(=O)Nc1cccc(Oc2nc(Nc3ccc(OC)cc3)nc3ccsc23)c1`, for which the IC50 was 36.1 µM in the assay with HeLa; over 50 µM with MCF7; over 50 µM with L02; 15.1 µM in the assay with A-431; 16.1 µM with A549.

Take `CCC/C=C/C(=O)Nc1cccc(Oc2nc(Nc3ccc(OC)nc3)nc3ccsc23)c1`: the IC50 in the assay with HeLa is over 50 µM; in the assay on MCF7, over 50 µM; in the assay on L02, 41.6 µM; in the assay on A-431, 30.3 µM; with A549, 21.5 µM.

Take `CC(C)=CC(=O)Nc1cccc(Oc2nc(Nc3ccn(C)n3)nc3ccsc23)c1`: the IC50 in the assay with HeLa came to 39.6 µM; in the assay with MCF7 it was 43.9 µM; in the assay on A-431, 38.9 µM; in the assay on A549, 31.9 µM.

Turning to `CC/C=C/C(=O)Nc1cccc(Oc2nc(Nc3cccc(C#N)c3)nc3ccsc23)c1`, the IC50 in the assay with HeLa was 69.4 µM; with MCF7, over 50 µM; in the assay on L02, over 50 µM; with A-431, 36.2 µM; in the assay with A549, 14.9 µM.

As for `C=CC(=O)Nc1cccc(Oc2nc(Nc3ccn(C)n3)nc3ccsc23)c1`, the IC50 is 17.3 µM in the assay with HeLa, 37.6 µM with MCF7, 13.9 µM in the assay on A-431 and 26.5 µM in the assay on A549.

Consider `CC/C=C/C(=O)Nc1cccc(Oc2nc(Nc3ccn(C)n3)nc3ccsc23)c1`, for which the concentration for half-maximal inhibition (IC50) in the assay on HeLa is 49.4 µM; with MCF7, over 50 µM; with A-431 it was 36.2 µM; in the assay with A549 it was 25.6 µM.

For the compound `COc1cccc(Nc2nc(Oc3cccc(NC(=O)/C=C/C(C)C)c3)c3sccc3n2)c1`, the concentration for half-maximal inhibition (IC50) came to 27 µM in the assay on HeLa, 43.9 µM in the assay on MCF7, 23.4 µM in the assay on A-431 and 37.1 µM in the assay on A549.

As for `COc1cccc(Nc2nc(Oc3cccc(NC(=O)C=C(C)C)c3)c3sccc3n2)c1`, the half-maximal inhibitory concentration (IC50) in the assay on HeLa is 26.1 µM; in the assay with MCF7, 35.8 µM; in the assay with A-431 it was 25.8 µM; in the assay with A549, 27.7 µM.

On to `COc1ccc(Nc2nc(Oc3cccc(NC(=O)C=C(C)C)c3)c3sccc3n2)cn1`, for which the IC50 in the assay on HeLa is over 100 µM; in the assay on MCF7, over 100 µM; in the assay on L02 it was 36.9 µM; with A-431, over 50 µM; in the assay on A549, 40.1 µM.

For the compound `CC(C)/C=C/C(=O)Nc1cccc(Oc2nc(Nc3ccn(C)n3)nc3ccsc23)c1`, the half-inhibitory concentration (IC50) with HeLa is 48.8 µM; in the assay with MCF7, over 50 µM; with A-431, 46.1 µM; in the assay on A549 it was 29.9 µM.

For `COc1ccc(Nc2nc(Oc3cccc(NC(=O)/C=C/C(C)C)c3)c3sccc3n2)cc1`, the half-maximal inhibitory concentration (IC50) in the assay on HeLa was 45.1 µM; in the assay on MCF7, over 50 µM; in the assay with A-431, 25.2 µM; in the assay on A549 it was 37.9 µM.

In the case of `C=CC(=O)Nc1cccc(Oc2nc(Nc3ccc(OC)nc3)nc3ccsc23)c1`, the IC50 in the assay with HeLa was 47.1 µM; in the assay with MCF7, over 50 µM; in the assay with L02 it was over 50 µM; in the assay on A-431 it was 27.8 µM; in the assay with A549, 20.4 µM.

`CC/C=C/C(=O)Nc1cccc(Oc2nc(Nc3cccc(OC)c3)nc3ccsc23)c1`: the IC50 is 29.4 µM in the assay on HeLa; 43.4 µM with MCF7; over 50 µM in the assay with L02; 29.2 µM in the assay with A-431; 19.6 µM with A549.

Turning to `CC(C)=CC(=O)Nc1cccc(Oc2nc(Nc3cccc(C#N)c3)nc3ccsc23)c1`, the 50% inhibitory concentration (IC50) in the assay on HeLa was 19.8 µM; with MCF7 it was 41.1 µM; in the assay with L02 it was over 50 µM; with A-431, 28.3 µM; in the assay with A549 it was 16.9 µM.

Consider `CCC/C=C/C(=O)Nc1cccc(Oc2nc(Nc3cccc(OC)c3)nc3ccsc23)c1`, for which the IC50 with HeLa is 7.73 µM; in assay [1] it was over 1 µM; with MCF7, 5.02 µM; with L02, over 50 µM; in the assay on A-431, 8.09 µM; in [5], over 1 µM. Also, the half-maximal inhibitory concentration (IC50) with A549 was 5.56 µM. Besides, the inhibition worked out at 4% in [2] and 24.5% in the assay listed under Homo sapiens. Further, the inhibition at 10 µM in the assay on NCI-H1975 [3] amounted to 14.6%. For the same compound, the inhibition at 1 µM with NCI-H1975 [6] was -0.18%.

As to `C/C=C/C(=O)Nc1cccc(Oc2nc(Nc3cccc(OC)c3)nc3ccsc23)c1`, the IC50 came out at 20.1 µM in the assay on HeLa; 14.6 µM in the assay on MCF7; 46 µM in the assay with L02; 13.1 µM with A-431; 10.5 µM in the assay with A549.

On to `COc1ccc(Nc2nc(Oc3cccc(NC(=O)C=C(C)C)c3)c3sccc3n2)cc1`, for which the 50% inhibitory concentration (IC50) in the assay on HeLa stood at 28.8 µM; in the assay with MCF7, 46.1 µM; in the assay with L02 it was 48.9 µM; with A-431, 17.6 µM; in the assay with A549, 18.1 µM.

Consider `C/C=C/C(=O)Nc1cccc(Oc2nc(Nc3ccc(OC)nc3)nc3ccsc23)c1`, for which the IC50 in the assay with HeLa is over 50 µM; in the assay with MCF7 it was over 50 µM; in the assay with L02 it was over 50 µM; in the assay on A-431, 37.2 µM; with A549, 31.9 µM.

Consider `CC/C=C/C(=O)Nc1cccc(Oc2nc(Nc3ccc(OC)nc3)nc3ccsc23)c1`, for which the IC50 with HeLa is 49.9 µM; in the assay with MCF7, over 50 µM; with L02, over 50 µM; in the assay with A-431 it was 26.2 µM; with A549 it was 25.8 µM.

Consider `C/C=C/C(=O)Nc1cccc(Oc2nc(Nc3ccc(OC)cc3)nc3ccsc23)c1`, for which the IC50 is 45.1 µM in the assay on HeLa; over 50 µM in the assay on MCF7; over 50 µM in the assay with L02; 11.8 µM in the assay with A-431; 13.7 µM in the assay with A549.

Consider `COc1ccc(Nc2nc(Oc3cccc(NC(=O)/C=C/C(C)C)c3)c3sccc3n2)cn1`, for which the IC50 in the assay with HeLa, in the assay on MCF7, in the assay on A-431 and with A549 was over 50 µM in each case.

As to `C=CC(=O)Nc1cc(Nc2nccc(-c3cn(C)c4ccccc34)n2)c(OC)cc1N(C)CCN(C)C` [OSIMERTINIB], the concentration for half-maximal inhibition (IC50) in the assay on HeLa is 1.83 µM; in the assay with MCF7, 3.67 µM; in the assay on L02, over 50 µM; in the assay on A-431, […]; in the assay on A549, 0.67 µM.

As to `C=CC(=O)Nc1cccc(Oc2nc(Nc3ccc(OC)cc3)nc3ccsc23)c1`, the IC50 in the assay with HeLa was 26.1 µM; with MCF7 it was 16 µM; with NCI-H1975 [4], 0.207 µM; in the assay with L02 it was over 50 µM; with A-431, 9.3 µM; in the assay on A549, 8.61 µM. In addition, the inhibition at 10 µM with NCI-H1975 [3] was determined as 83.8%. Also, the inhibition at 1 µM in the assay on NCI-H1975 [6] is 59.1%.
